This passage reports IC50 and Selectivity results from patent US20210186970A1, “SELECTIVE CALCIUM CHANNEL ANTAGONISTS” (Northwestern University, priority 2011, published 2021).

One may read the IC50 as the point on the concentration scale where inhibition reaches its midpoint.

Assay [1] has as its target T1, Cav1.3 L-type Ca channels (Rattus norvegicus, UniProt P27732).
T1 construct: expressed in transfected cells; host or cells: HEK293
Description: FLIPR Fluo-8 calcium assay, Cav1.3 channel inhibition in HEK293 cells. It counts as cell-based. The settings on record: for IC50: FLIPR, HEK293, value (±SD).

Assay [2] has as its target Cav1.2 L-type Ca channels (Oryctolagus cuniculus, UniProt P15381). Description: FLIPR Fluo-8 calcium assay, Cav1.2 channel inhibition in HEK293 cells.
The mark [3] stands for this setting: IC50 (μM) CaV1.3, first library.
The mark [4] stands for this setting: first library, ratio of IC50 Cav1.2 to Cav1.3.
The mark [5] stands for this setting: IC50 (μM) CaV1.2, first library, FLIPR, HEK293, value (±SD).
[6] abbreviates: first library, read-out: IC50 (μM) CaV1.3.
Where [7] appears, read: IC50 (μM) Cav1.3, second library.
[8] abbreviates: second library, ratio of IC50 Cav1.2 to Cav1.3.
Where [9] appears, read: IC50 (μM) Cav1.2, second library, FLIPR, HEK293, value (±SD).
The mark [10] stands for this setting: IC50 (μM) Cav1.3, third library.
Setting [11] is: third library, ratio of IC50 Cav1.2 to Cav1.3.
Where [12] appears, read: IC50 (μM) Cav1.2, third library, FLIPR, HEK293, value (±SD).

Like-named read-outs stand apart in the source and are kept apart here.

T1 sequence (P27732 whole entry): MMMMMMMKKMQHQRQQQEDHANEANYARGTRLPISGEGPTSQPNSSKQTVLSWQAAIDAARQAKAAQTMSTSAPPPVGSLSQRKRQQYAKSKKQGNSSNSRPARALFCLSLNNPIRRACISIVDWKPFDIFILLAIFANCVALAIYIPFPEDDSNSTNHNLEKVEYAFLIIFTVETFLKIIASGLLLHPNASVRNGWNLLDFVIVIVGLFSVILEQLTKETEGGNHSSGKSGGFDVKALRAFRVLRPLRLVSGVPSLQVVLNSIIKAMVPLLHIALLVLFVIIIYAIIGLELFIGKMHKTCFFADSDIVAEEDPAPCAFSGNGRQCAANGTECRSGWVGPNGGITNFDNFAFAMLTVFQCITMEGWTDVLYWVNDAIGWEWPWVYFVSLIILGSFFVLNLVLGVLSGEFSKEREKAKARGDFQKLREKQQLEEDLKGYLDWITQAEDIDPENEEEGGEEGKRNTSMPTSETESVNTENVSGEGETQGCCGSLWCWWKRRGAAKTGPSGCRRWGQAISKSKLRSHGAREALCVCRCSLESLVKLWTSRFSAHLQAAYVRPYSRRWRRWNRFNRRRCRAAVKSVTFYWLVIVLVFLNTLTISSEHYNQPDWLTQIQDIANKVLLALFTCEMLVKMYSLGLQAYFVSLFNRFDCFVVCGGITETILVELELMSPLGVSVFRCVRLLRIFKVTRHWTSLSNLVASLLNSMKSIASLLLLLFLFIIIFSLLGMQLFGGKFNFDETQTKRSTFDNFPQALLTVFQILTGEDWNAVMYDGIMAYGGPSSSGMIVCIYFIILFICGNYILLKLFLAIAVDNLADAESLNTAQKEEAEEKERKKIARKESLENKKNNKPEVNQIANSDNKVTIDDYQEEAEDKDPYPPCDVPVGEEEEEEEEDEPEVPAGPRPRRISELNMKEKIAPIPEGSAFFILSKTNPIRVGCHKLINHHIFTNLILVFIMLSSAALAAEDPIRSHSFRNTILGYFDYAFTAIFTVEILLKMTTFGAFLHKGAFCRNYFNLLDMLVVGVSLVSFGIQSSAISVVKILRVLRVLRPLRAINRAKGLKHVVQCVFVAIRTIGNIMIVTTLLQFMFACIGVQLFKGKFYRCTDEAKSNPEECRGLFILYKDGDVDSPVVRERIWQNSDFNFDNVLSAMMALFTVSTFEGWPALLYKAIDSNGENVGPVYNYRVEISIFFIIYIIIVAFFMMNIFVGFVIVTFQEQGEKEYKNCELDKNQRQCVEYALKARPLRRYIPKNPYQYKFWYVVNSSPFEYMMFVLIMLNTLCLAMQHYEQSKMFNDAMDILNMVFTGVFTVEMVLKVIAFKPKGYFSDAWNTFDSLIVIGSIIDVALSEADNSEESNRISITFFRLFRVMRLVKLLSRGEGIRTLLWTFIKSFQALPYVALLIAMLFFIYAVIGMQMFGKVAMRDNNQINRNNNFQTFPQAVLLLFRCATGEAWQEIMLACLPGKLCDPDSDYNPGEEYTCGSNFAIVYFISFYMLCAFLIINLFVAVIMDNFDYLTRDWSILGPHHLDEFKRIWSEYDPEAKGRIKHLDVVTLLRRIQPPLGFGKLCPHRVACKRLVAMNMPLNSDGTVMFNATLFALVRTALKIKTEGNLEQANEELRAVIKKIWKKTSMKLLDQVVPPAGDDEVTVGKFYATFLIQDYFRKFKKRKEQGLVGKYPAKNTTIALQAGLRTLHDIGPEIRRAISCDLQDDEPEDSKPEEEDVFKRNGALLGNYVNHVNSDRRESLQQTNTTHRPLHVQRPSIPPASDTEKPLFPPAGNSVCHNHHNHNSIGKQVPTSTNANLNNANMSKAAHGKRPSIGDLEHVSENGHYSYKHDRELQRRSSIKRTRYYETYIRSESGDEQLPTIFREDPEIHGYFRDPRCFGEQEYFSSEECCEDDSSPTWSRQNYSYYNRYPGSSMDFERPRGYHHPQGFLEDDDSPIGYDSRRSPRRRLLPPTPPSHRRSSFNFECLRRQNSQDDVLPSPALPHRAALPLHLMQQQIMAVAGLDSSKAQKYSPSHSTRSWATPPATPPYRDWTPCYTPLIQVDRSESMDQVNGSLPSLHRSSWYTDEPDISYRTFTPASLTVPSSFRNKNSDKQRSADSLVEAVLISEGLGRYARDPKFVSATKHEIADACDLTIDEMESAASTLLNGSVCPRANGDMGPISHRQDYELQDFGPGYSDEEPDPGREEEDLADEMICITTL
T1 sequence (P54284 whole entry partner): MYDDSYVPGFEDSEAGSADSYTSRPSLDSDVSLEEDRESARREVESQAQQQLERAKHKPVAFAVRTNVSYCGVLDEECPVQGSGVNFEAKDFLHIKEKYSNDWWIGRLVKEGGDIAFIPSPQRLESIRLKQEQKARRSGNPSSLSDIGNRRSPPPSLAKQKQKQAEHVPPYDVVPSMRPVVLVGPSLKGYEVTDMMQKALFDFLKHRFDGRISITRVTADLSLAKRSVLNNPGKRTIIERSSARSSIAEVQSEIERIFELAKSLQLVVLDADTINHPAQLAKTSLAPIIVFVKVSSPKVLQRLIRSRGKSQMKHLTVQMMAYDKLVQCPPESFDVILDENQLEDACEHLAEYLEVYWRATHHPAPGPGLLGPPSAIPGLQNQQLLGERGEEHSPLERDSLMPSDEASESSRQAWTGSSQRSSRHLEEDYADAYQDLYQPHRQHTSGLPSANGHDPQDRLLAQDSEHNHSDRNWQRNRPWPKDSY
T1 sequence (P54289 25-956 partner limits assumed): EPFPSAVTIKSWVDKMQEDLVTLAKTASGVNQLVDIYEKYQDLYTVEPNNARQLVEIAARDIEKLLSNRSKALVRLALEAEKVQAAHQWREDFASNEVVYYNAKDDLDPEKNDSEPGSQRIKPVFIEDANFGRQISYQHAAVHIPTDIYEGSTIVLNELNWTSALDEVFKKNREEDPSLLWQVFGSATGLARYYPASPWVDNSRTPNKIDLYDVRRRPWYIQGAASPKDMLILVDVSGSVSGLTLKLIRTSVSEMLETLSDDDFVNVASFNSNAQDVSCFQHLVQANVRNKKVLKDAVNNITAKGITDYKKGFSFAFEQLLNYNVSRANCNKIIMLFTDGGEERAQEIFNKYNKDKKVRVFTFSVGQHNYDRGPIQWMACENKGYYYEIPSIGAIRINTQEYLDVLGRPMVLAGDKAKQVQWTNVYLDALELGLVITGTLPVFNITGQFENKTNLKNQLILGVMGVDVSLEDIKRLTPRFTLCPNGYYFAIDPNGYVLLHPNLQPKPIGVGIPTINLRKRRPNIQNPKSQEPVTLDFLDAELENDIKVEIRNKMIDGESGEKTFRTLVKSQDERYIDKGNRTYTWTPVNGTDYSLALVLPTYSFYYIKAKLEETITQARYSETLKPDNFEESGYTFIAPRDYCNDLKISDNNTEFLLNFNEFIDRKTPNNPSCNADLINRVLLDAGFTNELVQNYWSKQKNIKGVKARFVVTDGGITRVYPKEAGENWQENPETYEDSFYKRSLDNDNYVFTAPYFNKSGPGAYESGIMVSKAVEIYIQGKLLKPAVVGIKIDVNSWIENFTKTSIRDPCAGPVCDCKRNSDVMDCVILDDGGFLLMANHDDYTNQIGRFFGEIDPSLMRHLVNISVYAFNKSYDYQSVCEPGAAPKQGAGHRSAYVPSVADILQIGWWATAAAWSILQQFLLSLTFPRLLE
T1 sequence (P54289 957-1103 partner limits assumed): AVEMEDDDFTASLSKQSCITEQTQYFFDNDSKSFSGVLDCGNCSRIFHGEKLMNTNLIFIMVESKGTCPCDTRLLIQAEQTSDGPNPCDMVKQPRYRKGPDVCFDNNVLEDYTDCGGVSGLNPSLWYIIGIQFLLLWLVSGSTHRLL

As to `O=C1CC(=O)N(CCc2cccc([N+](=O)[O-])c2)C(=O)N1CCCCc1ccccc1` [Compound 47], the IC50 in assay [1] (setting [3]) and in assay [2] (setting [5]) was 3 µM throughout. Besides, the Selectivity in assay [1] (setting [4]) is 1.0.
With `O=C1CC(=O)N(Cc2ccc(Cl)cc2)C(=O)N1CCCCc1ccccc1` [Compound 48], the IC50 in assay [1] (setting [3]) came to 2.1 µM; in assay [2] (setting [5]) it was 7.7 µM. Further, the Selectivity in assay [1] (setting [4]) came to 3.7.
For `O=C1CC(=O)N(CCCc2ccccc2)C(=O)N1CCCCc1ccccc1` [Compound 49], the IC50 in assay [1] (setting [6]) stood at 1.3 µM; in assay [2] (setting [5]) it was 2.6 µM. In addition, in assay [1] (setting [4]), the Selectivity turned out to be 2.0.
In the case of `O=C1CC(=O)N(C2CCCc3ccccc32)C(=O)N1CCCCc1ccccc1` (centres unmarked) [Compound 50], the values for the IC50 in assay [1] (setting [3]) and in assay [2] (setting [5]) were 36.5 µM and 34.1 µM, respectively. For the same compound, in assay [1] (setting [4]), the Selectivity is on record as 0.9.
Turning to `O=C1CC(=O)N(C2Cc3ccccc3C2)C(=O)N1CCCCc1ccccc1` [Compound 51], the IC50 in assay [1] (setting [6]) is 3.3 µM; in assay [2] (setting [5]) it was 4.9 µM. In addition, the Selectivity in assay [1] (setting [4]) worked out at 1.5.
Take `O=C1CC(=O)N(C2CCc3ccccc32)C(=O)N1CCCCc1ccccc1` (centres unmarked) [Compound 52]: the IC50 in assay [1] (setting [3]) turned out to be 5.3 µM; in assay [2] (setting [5]), 5.7 µM. Besides, the Selectivity in assay [1] (setting [4]) is recorded as 1.1.
For `O=C1CC(=O)N(CCc2ccc3ccccc3c2)C(=O)N1CCCCc1ccccc1` [Compound 53] the same measures were 1.9 µM, 2.5 µM and 1.3.
Taken in the same sequence, the figures for `O=C1CC(=O)N(CCc2ccc(Cl)c(Cl)c2)C(=O)N1CCCc1ccccc1` [Compound 54] were 4.3 µM, 6.9 µM and 1.6.
`O=C1CC(=O)N(CCc2ccc(F)cc2)C(=O)N1CCCc1ccccc1` [Compound 55]: the figures for the IC50 in assay [1] (setting [6]) and in assay [2] (setting [5]) were 1.3 µM and 2.2 µM, respectively. The Selectivity in assay [1] (setting [4]) is reported as 1.7.
As for `O=C1CC(=O)N(CCc2cccc(F)c2)C(=O)N1CCCc1ccccc1` [Compound 56], the IC50 stood at 1.6 µM in assay [1] (setting [3]) and 2.5 µM in assay [2] (setting [5]). Further, in assay [1] (setting [4]), the Selectivity stood at 1.5.
For `O=C1CC(=O)N(Cc2cccc([N+](=O)[O-])c2)C(=O)N1CCCc1ccccc1` [Compound 57] the same measures were 16.5 µM, 13 µM and 0.8.
Turning to `O=C1CC(=O)N(CCc2cccc([N+](=O)[O-])c2)C(=O)N1CCCc1ccccc1` [Compound 58], the IC50 in assay [1] (setting [3]) was found to be 10.4 µM; in assay [2] (setting [5]), 9.5 µM. In addition, the Selectivity in assay [1] (setting [4]) turned out to be 0.9.
`O=C1CC(=O)N(Cc2ccc(Cl)cc2)C(=O)N1CCCc1ccccc1` [Compound 59]: the IC50 is 21.9 µM in assay [1] (setting [3]) and 26 µM in assay [2] (setting [5]). For the same compound, the Selectivity in assay [1] (setting [4]) was determined as 1.2.
As for `CCCCCCCCN1C(=O)CC(=O)N(CCCc2ccccc2)C1=O` [Compound 60], the IC50 in assay [1] (setting [6]) worked out at 1.1 µM; in assay [2] (setting [5]), 2.6 µM. For the same compound, the Selectivity in assay [1] (setting [4]) was 2.5.
Turning to `O=C1CC(=O)N(CCc2ccc3ccccc3c2)C(=O)N1CCCc1ccccc1` [Compound 61], the half-inhibitory concentration (IC50) in assay [1] (setting [3]) was 1 µM; in assay [2] (setting [5]), 1.2 µM. Besides, in assay [1] (setting [4]), the Selectivity is 1.3.
For `O=C1CC(=O)N(CCc2ccc3ccccc3c2)C(=O)N1CCc1ccc2ccccc2c1` [Compound 62] the same measures were 2.9 µM, 1.8 µM and 0.6.
For `O=C1CC(=O)N(CCc2ccc3ccccc3c2)C(=O)N1CCc1ccc(Cl)c(Cl)c1` [Compound 63] the same measures were 4 µM, 3.8 µM and 1.0.
Taken in the same sequence, the figures for `O=C1CC(=O)N(CCc2ccc3ccccc3c2)C(=O)N1CCc1ccc(F)cc1` [Compound 64] were 1.8 µM, 3.8 µM and 2.1.
For the compound `O=C1CC(=O)N(Cc2cccc([N+](=O)[O-])c2)C(=O)N1CCc1ccc2ccccc2c1` [Compound 65], the values for the IC50 in assay [1] (setting [3]) and in assay [2] (setting [5]) were 4.8 µM and 5 µM, respectively. Besides, the Selectivity in assay [1] (setting [4]) was found to be 1.0.
As for `O=C1CC(=O)N(Cc2ccc(Cl)cc2)C(=O)N1CCc1ccc2ccccc2c1` [Compound 66], the IC50 in assay [1] (setting [3]) is 1.7 µM; in assay [2], 2.4 µM.
Turning to `CCCCCCCCN1C(=O)CC(=O)N(CCc2ccc3ccccc3c2)C1=O` [Compound 67], the values for the IC50 in assay [1] (setting [6]) and in assay [2] (setting [5]) were 1.9 µM and 8.9 µM, respectively. For the same compound, the Selectivity in assay [1] (setting [4]) is recorded as 4.8.
With `O=C1CC(=O)N(C2CCCCC2)C(=O)N1CCc1ccc(F)cc1` [Compound 68], the IC50 in assay [1] (setting [3]) is 9.4 µM; in assay [2] (setting [5]) it was 166 µM. For the same compound, in assay [1] (setting [4]), the Selectivity turned out to be 17.7.
Take `Cc1ccc(CCN2C(=O)CC(=O)N(C3CCCCC3)C2=O)cc1` [Compound 74]: the IC50 in assay [1] (setting [7]) was 1.8 µM; in assay [2] (setting [9]), 6.1 µM. Moreover, the Selectivity in assay [1] (setting [8]) turned out to be 3.4.
For `O=C1CC(=O)N(C2CCCCC2)C(=O)N1CCc1ccccc1Cl` [Compound 76] the same measures were 5.2 µM, 44.5 µM and 7.7.
For `O=C1CC(=O)N(C2CCCCC2)C(=O)N1CCc1ccc(Br)cc1` [Compound 77] the same measures were 0.8 µM, 21.3 µM and 26.4.
With `N#Cc1ccc(CCN2C(=O)CC(=O)N(C3CCCCC3)C2=O)cc1` [Compound 78], the IC50 is 49.8 µM in assay [1] (setting [7]) and 56 µM in assay [2] (setting [9]). Further, the Selectivity in assay [1] (setting [8]) was 1.1.
For `N#Cc1cccc(CCN2C(=O)CC(=O)N(C3CCCCC3)C2=O)c1` [Compound 79] the same measures were 10.5 µM, 36.5 µM and 3.5.
Take `COc1ccc(CN2C(=O)CC(=O)N(C3CCCCC3)C2=O)cc1` [Compound 81]: the Selectivity in assay [1] turned out to be 2.1. The IC50 was 32.2 µM in assay [1] (setting [7]) and 67.8 µM in assay [2] (setting [9]).
For `O=C1CC(=O)N(C2CCCCC2)C(=O)N1Cc1ccc(Cl)cc1` [Compound 82] the same measures were 14.7, 8.1 µM and 119 µM.
As to `O=C1CC(=O)N(C2CCCCC2)C(=O)N1Cc1cccc([N+](=O)[O-])c1` [Compound 83], the values for the IC50 in assay [1] (setting [7]) and in assay [2] (setting [9]) were 48.2 µM and 59.5 µM, respectively. Further, the Selectivity in assay [1] (setting [8]) turned out to be 1.2.
For the compound `O=C1CC(=O)N(C2CCCCC2)C(=O)N1CCCc1ccccc1` [Compound 84], the figures for the IC50 in assay [1] (setting [7]) and in assay [2] (setting [9]) were 6.3 µM and 30.5 µM, respectively. For the same compound, the Selectivity in assay [1] (setting [8]) worked out at 4.9.
As for `O=C1CC(=O)N(C2CCc3ccccc32)C(=O)N1C1CCCCC1` (centres unmarked) [Compound 85], the IC50 was 16.4 µM in assay [1] (setting [7]) and 19.2 µM in assay [2] (setting [9]). The Selectivity in assay [1] (setting [8]) stood at 1.2.
For `O=C1CC(=O)N(C2CCCCC2)C(=O)N1CCOc1ccccc1` [Compound 88] the same measures were 9.5 µM, 11.8 µM and 1.2.
Turning to `O=C(O)c1cccc(CCN2C(=O)CC(=O)N(C3CCCCC3)C2=O)c1` [Compound 89], the IC50 in assay [1] (setting [7]) was determined as 73 µM; in assay [2] (setting [9]), 64.7 µM. Also, in assay [1] (setting [8]), the Selectivity is reported as 0.9.
As for `O=C1CC(=O)N(C2CCCCCC2)C(=O)N1CCc1cccc(C(F)(F)F)c1` [Compound 90], the IC50 in assay [1] (setting [10]) was found to be 1.7 µM; in assay [2] (setting [12]) it was 5.7 µM. In assay [1] (setting [11]), the Selectivity is recorded as 3.4.
Taken in the same sequence, the figures for `O=C1CC(=O)N(C2CCCCCC2)C(=O)N1CCc1cccc(Cl)c1` [Compound 91] were 2.5 µM, 45.6 µM and 18.5.
Taken in the same sequence, the figures for `O=C1CC(=O)N(C2CCCCCC2)C(=O)N1CCc1ccc(Cl)cc1` [Compound 92] were 2.2 µM, 32.8 µM and 15.0.
Taken in the same sequence, the figures for `Cc1cccc(CCN2C(=O)CC(=O)N(C3CCCCCC3)C2=O)c1` [Compound 93] were 13.2 µM, 30.7 µM and 2.3.
As for `Cc1ccc(CCN2C(=O)CC(=O)N(C3CCCCCC3)C2=O)cc1` [Compound 94], the IC50 in assay [1] (setting [10]) amounted to 0.9 µM; in assay [2] (setting [12]) it was 14.9 µM. Further, the Selectivity in assay [1] (setting [11]) was 16.0.
For `Cc1cccc(CCN2C(=O)CC(=O)N(C3CCCC3)C2=O)c1` [Compound 97] the same measures were 1.1 µM, 52.1 µM and 49.1.
Taken in the same sequence, the figures for `Cc1ccc(CCN2C(=O)CC(=O)N(C3CCCC3)C2=O)cc1` [Compound 98] were 1.7 µM, 35.8 µM and 20.7.
On to `O=C1CC(=O)N(C2CCC2)C(=O)N1CCc1cccc(Cl)c1` [Compound 99], for which the IC50 in assay [1] (setting [10]) turned out to be 2.7 µM; in assay [2], 14.6 µM. In assay [1] (setting [11]), the Selectivity was determined as 5.4.
Take `O=C1CC(=O)N(C2CCC2)C(=O)N1CCc1ccc(Cl)cc1` [Compound 100]: the IC50 in assay [1] (third library, read-out: IC50 (μM) Cav1.3) is 1.8 µM; in assay [2] (setting [12]), 4.9 µM. Further, in assay [1] (setting [11]), the Selectivity is listed as 2.8.
For `O=C1CC(=O)N(C2CC2)C(=O)N1CCc1cccc(Cl)c1` [Compound 101], the IC50 stood at 26.8 µM in assay [1] (setting [10]) and 5.4 µM in assay [2]. Also, the Selectivity in assay [1] (setting [11]) was found to be 0.2.
Turning to `O=C1CC(=O)N(C2CC2)C(=O)N1CCc1ccc(Cl)cc1` [Compound 102], the IC50 was found to be 19.6 µM in assay [1] (setting [10]) and 5 µM in assay [2]. For the same compound, the Selectivity in assay [1] (setting [11]) amounted to 0.3.
